In patent US20210198647A1, “Enhancers of Neurolysin Activity” (Texas Tech University System, priority 2018, published 2021):
Several values for one entry are separate records, joined by “and”; a condition that tells them apart may be missing. Identical values can stand only once. Like-named read-outs stand apart in the source and are kept apart here.

Tests used:
in vitro = conditions: mouse, mouse plasma
[1] = In vitro metabolic stability in mouse plasma and brain homogenate; conditions: 10% mouse brain homogenate; 500 ng/mL; 37° C.
[2] = system: co-culture of primary mouse astrocytes and immortalized mouse endothelial cells (bEnd3); test: In vitro BBB permeability, apical to basolateral transport; format: in vitro ADME; conditions: 10 μg/mL, 37° C.
Procedure: The permeability coefficient (Pe) was calculated from the cleared volume of each compound versus time. Values represent the mean±SD of three measurements.
Mouse primary astrocytes were isolated from the cerebral cortices of one day old pups (CD-1 mice, Charles Rivers Laboratory) following a literature method.^36 After extracting the brain, cortices were separated, minced and placed in Hank's balanced salt solution (HBSS) without calcium and magnesium, supplemented with gentamycin (10 μg/m). […] The cell suspensions were seeded into a T75 flask and the medium was changed every 3 days for 10-14 days or until reaching confluency.
For bEnd3 and astrocyte co-culture, the Transwell filters ([…] pore size, 12-well; Corning, Lowell, Mass.) were used. First, the Transwell filter was inverted and astrocytes at a density of 150,000 cells/filter were seeded onto the abluminal side of the filter and allowed to adhere for 4 hours. Then the Transwell filter was inverted back and the cells were grown for 2 days in astrocyte medium. At the end of 48 hours, bEnd3 cells at a density of 50,000 cells/filter were seeded onto the upper/luminal side of the filter and the co-culture of astrocytes and bEnd3 cells were grown for an additional 8 days. The medium for both compartments were changed every other day according to literature proceedures.^37
The apparent permeability coefficient (Pe, in cm/min) was calculated according to the cleared volume of each time point, as previously described.^38,39
Permeability measurement for each compound was run for 120 minutes. The media was removed and transwells were rinsed and incubated with HBSS buffer at 37° C. for 30 minutes. […] Concentration of compounds was determined by LC-MS/MS. Since the blank Transwell insert itself (without cells) provides resistance to the passage of buffer and compound from the donor to receiver chamber, the permeability of each compound was also measured in a blank insert and the final permeability coefficient results were calculated by considering the permeability of each compound in a blank insert.

[3] = target: T1, angiotensin converting enzyme (ACE) (Homo sapiens, UniProt P12821); test: Peptidase selectivity: quenched fluorescent substrate hydrolysis by ACE; format: biochemical; conditions: concentration-response up to 300 μM
T1 construct: purchased R & D systems 929-ZN
T1 sequence (P12821 30-1306): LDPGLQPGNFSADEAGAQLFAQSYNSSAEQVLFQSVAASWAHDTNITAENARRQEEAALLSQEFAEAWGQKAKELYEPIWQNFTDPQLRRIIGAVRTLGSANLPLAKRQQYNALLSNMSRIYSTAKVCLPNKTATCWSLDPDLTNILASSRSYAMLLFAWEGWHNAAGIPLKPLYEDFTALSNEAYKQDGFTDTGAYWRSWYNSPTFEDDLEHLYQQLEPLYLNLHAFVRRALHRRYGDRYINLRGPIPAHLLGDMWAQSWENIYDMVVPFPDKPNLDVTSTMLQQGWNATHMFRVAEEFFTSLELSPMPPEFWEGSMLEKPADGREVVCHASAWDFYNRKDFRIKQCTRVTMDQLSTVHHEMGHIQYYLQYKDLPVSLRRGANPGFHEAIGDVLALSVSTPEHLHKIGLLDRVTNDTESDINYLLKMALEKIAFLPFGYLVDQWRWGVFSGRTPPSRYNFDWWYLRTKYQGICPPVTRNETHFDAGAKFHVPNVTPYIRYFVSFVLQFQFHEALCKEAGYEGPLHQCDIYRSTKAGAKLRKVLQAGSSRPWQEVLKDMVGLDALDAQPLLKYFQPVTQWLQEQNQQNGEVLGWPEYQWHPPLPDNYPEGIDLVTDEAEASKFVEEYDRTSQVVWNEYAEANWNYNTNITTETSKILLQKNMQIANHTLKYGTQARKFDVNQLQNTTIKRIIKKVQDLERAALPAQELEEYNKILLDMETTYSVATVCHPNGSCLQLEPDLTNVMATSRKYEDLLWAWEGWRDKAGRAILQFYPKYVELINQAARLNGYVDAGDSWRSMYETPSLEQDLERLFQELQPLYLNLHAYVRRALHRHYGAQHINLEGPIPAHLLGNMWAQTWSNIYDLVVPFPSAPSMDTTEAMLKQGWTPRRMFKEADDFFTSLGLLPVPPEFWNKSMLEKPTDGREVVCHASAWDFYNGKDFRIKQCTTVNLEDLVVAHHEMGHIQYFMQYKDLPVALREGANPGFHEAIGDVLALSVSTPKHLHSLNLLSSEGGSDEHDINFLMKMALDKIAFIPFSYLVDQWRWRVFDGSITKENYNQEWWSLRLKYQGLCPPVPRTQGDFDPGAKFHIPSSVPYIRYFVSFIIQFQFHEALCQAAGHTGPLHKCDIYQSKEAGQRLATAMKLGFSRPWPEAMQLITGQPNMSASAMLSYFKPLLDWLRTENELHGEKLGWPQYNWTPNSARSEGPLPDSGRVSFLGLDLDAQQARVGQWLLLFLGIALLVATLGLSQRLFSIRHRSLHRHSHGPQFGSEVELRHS

[4] = target: T2, angiotensin converting enzyme 2 (ACE2) (Homo sapiens, UniProt Q9BYF1); test: Peptidase selectivity: quenched fluorescent substrate hydrolysis by ACE2; format: biochemical; conditions: concentration-response up to 300 μM
T2 construct: purchased R & D systems 933-ZN
T2 sequence (Q9BYF1 18-805): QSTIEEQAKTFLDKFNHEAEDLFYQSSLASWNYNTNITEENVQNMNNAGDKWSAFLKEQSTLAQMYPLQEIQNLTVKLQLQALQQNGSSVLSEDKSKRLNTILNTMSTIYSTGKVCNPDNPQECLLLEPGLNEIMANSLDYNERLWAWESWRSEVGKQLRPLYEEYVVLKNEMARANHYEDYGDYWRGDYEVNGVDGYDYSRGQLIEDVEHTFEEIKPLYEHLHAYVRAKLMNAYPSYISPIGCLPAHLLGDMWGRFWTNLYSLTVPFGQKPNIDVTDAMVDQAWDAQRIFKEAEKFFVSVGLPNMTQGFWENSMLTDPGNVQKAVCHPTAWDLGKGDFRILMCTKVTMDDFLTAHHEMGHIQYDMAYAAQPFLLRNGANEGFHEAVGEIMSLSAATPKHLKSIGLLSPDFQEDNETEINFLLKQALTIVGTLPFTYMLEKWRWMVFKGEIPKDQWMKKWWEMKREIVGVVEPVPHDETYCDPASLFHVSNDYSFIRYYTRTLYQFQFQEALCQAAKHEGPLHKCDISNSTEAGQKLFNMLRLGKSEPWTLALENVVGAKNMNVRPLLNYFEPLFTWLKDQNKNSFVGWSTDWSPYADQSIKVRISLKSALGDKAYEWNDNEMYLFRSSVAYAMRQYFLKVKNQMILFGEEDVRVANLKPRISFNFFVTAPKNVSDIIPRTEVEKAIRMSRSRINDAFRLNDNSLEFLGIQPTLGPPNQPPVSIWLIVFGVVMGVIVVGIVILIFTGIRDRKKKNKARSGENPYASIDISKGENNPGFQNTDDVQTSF

[5] = Plasma and brain protein binding, rapid equilibrium dialysis (RED); format: in vitro ADME, mouse
Procedure: Plasma and Brain Protein Binding: The rapid equilibrium dialysis (RED) plate and single-use inserts with a membrane MWCO of 8 kDa and sealing tapes for 96-well plates were purchased from (Pierce Biotechnology, Thermo Fisher Scientific, Waltham, Mass.). Test compounds were dissolved in dimethyl sulfoxide and then diluted to 10 μg/mL with water for binding studies. The stock solutions (10 μg/mL) were added to mouse brain homogenates or plasma. The final concentration of the compounds for the equilibrium dialysis experiment was 500 ng/mL. The RED device was assembled according to the manufacturer's instructions. A 200 μL aliquot of plasma or brain homogenate spiked with 500 ng/mL of selected compound was added to the sample chamber of insert (donor) and 400 μL of DPBS was added to the buffer chamber of the dialysis membrane (receiver). Then, the base plate was covered with a sealing tape and was incubated at 37° C. on an orbital shaker at 250 rpm for 4 hours to achieve equilibrium. Compounds were evaluated in triplicate for each experiment. At the end of incubation, equal volumes from both donor and receiver chambers were taken and placed in separate microcentrifuge for content analysis using LC-MS/MS.

Neurolysin (Nln) = target: T3, Neurolysin (Nln) (Rattus norvegicus, UniProt P42676); test: Nln activation in isolated enzyme assay (A50, Amax); format: biochemical; conditions: 95% CI in parentheses; for Amax (maximum % activation achieved): 100% = normal enzyme turnover
T3 construct: polyhistidine (N); made in house; host or cells: Escherichia coli (pBAD/His vector), if the rat enzyme of b61 was used
T3 sequence (P42676 38-704): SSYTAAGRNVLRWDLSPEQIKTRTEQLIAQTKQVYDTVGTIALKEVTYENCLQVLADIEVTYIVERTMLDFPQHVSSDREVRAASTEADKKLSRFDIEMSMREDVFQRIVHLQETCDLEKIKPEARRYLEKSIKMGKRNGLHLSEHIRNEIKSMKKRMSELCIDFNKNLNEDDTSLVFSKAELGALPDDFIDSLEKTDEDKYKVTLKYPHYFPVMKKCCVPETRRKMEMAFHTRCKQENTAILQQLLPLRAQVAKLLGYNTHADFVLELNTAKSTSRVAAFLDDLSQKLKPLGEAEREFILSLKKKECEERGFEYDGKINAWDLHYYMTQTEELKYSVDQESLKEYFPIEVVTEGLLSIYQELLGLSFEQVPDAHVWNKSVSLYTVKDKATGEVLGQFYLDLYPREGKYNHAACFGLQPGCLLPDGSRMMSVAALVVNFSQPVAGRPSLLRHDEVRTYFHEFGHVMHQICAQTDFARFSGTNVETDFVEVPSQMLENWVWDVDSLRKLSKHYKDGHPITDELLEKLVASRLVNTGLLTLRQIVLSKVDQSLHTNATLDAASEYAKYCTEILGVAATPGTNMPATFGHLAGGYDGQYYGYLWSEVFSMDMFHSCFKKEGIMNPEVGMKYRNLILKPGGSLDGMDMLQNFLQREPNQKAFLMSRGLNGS

[6] = target: thimet oligopeptidase (TOP) (Homo sapiens, UniProt P52888); test: Peptidase selectivity: quenched fluorescent substrate hydrolysis by TOP; conditions: concentration-response up to 300 μM
thimet oligopeptidase (TOP), sequence (P52888 whole entry): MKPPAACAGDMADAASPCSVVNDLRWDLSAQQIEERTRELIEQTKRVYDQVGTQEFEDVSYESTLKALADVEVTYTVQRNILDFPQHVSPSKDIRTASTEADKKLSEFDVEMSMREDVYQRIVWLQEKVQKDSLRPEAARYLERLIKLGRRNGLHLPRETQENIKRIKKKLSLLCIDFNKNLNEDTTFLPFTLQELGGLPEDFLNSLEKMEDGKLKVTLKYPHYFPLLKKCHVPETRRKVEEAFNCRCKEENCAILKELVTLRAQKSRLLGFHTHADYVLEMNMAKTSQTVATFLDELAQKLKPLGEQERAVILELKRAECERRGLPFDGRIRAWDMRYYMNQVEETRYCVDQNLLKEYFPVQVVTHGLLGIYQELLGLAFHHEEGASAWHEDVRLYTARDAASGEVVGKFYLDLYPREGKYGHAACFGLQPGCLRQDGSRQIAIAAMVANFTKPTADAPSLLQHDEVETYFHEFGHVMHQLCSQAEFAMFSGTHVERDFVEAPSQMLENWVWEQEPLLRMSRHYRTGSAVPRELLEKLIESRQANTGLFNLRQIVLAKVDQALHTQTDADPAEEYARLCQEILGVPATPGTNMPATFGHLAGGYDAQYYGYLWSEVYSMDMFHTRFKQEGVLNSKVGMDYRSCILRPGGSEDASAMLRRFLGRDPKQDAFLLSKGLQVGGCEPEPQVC
Procedure: Activity of recombinant human TOP was assessed in the same way as for neurolysin, except that the assay was carried out in the presence of 0.1 mM dithiothreitol (37).

SMILES	half-life at 500 ng/mL (in vitro)	t1/2 Mouse Brain [1]	permeability coefficient (Pe) [2]	effect on activity of ACE (in words) [3]	effect on activity of ACE2 (in words) [4]	fu in Plasma ([5]; mouse plasma, 500 ng/mL)	Amax (maximum % activation achieved) (Neurolysin (Nln))	EC50 (Neurolysin (Nln); A50 (concentration required to activate Nln by 50%))	effect on activity of TOP (in words) [6]	fraction unbound at 4 h, 500 ng/mL ([5]; mouse brain homogenate, read-out: fu in Brain)	fraction unbound at 4 h, 500 ng/mL ([5]; mouse plasma, read-out: fu in Plasma)
N[C@@H](Cc1c[nH]cn1)C(=O)NCCc1c[nH]c2ccccc12 [Compound 9d, (S)—N-(2-(1H-indol-3-yl)ethyl)-2-amino-3-(1H-imidazol-4-yl)propanamide]	> 16.7 h	1.1 h and 1.09 ± 0.07 h	1.07±0.12×10^−3 cm/min	show inhibition of ACE at high concentration	showed inhibition of ACE2 at high concentrations	0.63 ± 0.076	259 (240.7 to 281) %	6.1 µM	only exhibited inhibition at concentrations approaching 300 μM		
N[C@@H](Cc1c[nH]cn1)C(=O)NCc1cccc2ccccc12 [Compound 10c, (S)-2-amino-3-(1H-imidazol-4-yl)-N-(naphthalen-1-ylmethyl)propanamide]		1.33 h and 1.34 ± 0.033 h	1.09±0.09×10^−3 cm/min	no inhibition at the maximum concentration tested	no inhibition up to 300 μM		264 (256.3 to 272.6) %		No appreciable inhibition	0.052 ± 0.003	0.45 ± 0.013
